In paper PMC7041945, “Misfolded proteins bind and activate death receptor 5 to trigger apoptosis during unresolved endoplasmic reticulum stress” (eLife, 2020):

How the values were obtained:
[1] = tested on: caspase 8 in HCT116 lysates; test: Caspase 8 activity (caspase glo 8) of cell lysates / IP inputs; format: cell-based, Homo sapiens; settings: for Caspase 8 activity, fold change relative to GFP: AVG (n = 3 tech reps); for AVG fold change relative to GFP: average over lysate dilutions
Method: Cells harvested from a 6-well plate were resuspended in 100 μl of lysis buffer (30 mM HEPES pH 7.2, 150 mM NaCl, 1% Triton X-100) and lysed via needle shearing (25G, 10 passes) followed by a 30 min incubation on ice. Supernatant was collected after centrifuging at 1000xg for 5 min. For the caspase activity assay, 10 μl of supernatant diluted with lysis buffer (1:25, 1:50, 1:100 to stay within linear range of luminescence measurements) was incubated with 10 μl of the luminogenic caspase glo 8 substrate (Promega #PRG8200) in a 384-white walled plate (Corning 3574) for 45 min at RT before measuring luminescence on a Spectramax-M5 plate reader.

[2] = tested on: DR5; test: GFP immunoprecipitation: DR5 (FADD, caspase 8) recovered with GFP-tagged protein, Western blot; format: cell-based, Homo sapiens; settings: for fraction IP'ed: beads/input
Method: 15 cm dishes were seeded with 4 million HCT116 cells and allowed to recover for 18 hr prior to transfection. Samples were then transfected for 24 hr with the GFP-tagged ER trafficked protein, cytosolic GFP, or empty vector. To harvest apoptotic and living cells for each sample, all media and washes were collected. Cells were scraped in 2 ml of cold PBS and combined with the media and washes. Samples were centrifuged to pellet cells, washed with 1 ml cold PBS, and flash frozen in liquid N2 prior to lysis.
The cell pellets were resuspended in 750 μl of 30 mM HEPES pH 7.2, 150 mM NaCl, 1% Triton X-100 with 1x Roche protease inhibitor cocktail (if used subsequently for caspase glo 8 assay) or with 5x Roche protease inhibitor cocktail (if used for immunoblotting). The cells were lysed by mechanical shearing through a 25G needle for 13–15 plunges followed by incubation on ice for 30 min. The lysate was centrifuged at 2000xg for 5 min to remove debris and then incubated with 30 μl of GFP-Trap magnetic agarose beads (Chromotek gtma-20) for 4 hr at 4°C. The beads were then washed with 750 μl of lysis buffer for 10 min at 4°C for three rounds.
For Western blots, samples were eluted by adding 35 μl of non-reducing SDS gel loading buffer (50 mM Tris-HCl (pH 6.8), 2% SDS, 0.1% bromophenol blue, 10% glycerol) and incubated for 10 min at 70°C. The beads were then magnetically removed from the eluted sample before adding DTT to a final concentration of 25 mM. The entire sample was loaded onto the gel and immunoblotted for DR5, caspase 8, and GFP, in that order.

[3] = tested on: HCT116 cells; test: Annexin V (and SytoxBlue) flow cytometry for apoptosis; format: cell-based, Homo sapiens; settings: for Annexin V +, Sytox Blue + cells / Annexin V +, Sytox Blue - cells / Annexin V -, Sytox Blue - cells: transfected 24 hr
Method: Cells seeded in a 6-well plate were transfected with the specified plasmid for 24 hr and harvested via trypsinization in complete media to allow a 30 min recovery at 37°C. The samples were then centrifuged at 500xg for 5 min and resuspended In 150 μl of a 1:20 dilution of Annexin V-AlexaFluor 647 conjugate (Thermo Scientific #A23204). Samples were transferred to a 96-well U-bottom plate and incubated in the dark for 15 min at RT. The distribution of apoptotic cells was determined by flow cytometry on a BD LSR II.

[4] = tested on: GFP (340+341); test: qPCR of GFP transcript (expression of GFP-tagged construct); format: cell-based; settings: 24 hr, Rep 2
[5] = GFP IP, HCT116, average of Rep 1 and Rep 2, SEM in separate column
[6] = GFP IP, HCT116, band intensity, Rep 1
[7] = empty + Tg, siRNA non-targeting, stain AnnexinV-647, 2018-06-27
[8] = siRNA scrambled, 2017-01-17 Replicate
[9] = siRNA scrambled, 2018-06-21 Rep 1
[10] = siRNA scrambled, 2018-06-21 Rep 2
[11] = siRNA scrambled, mean of 3 replicates

## FTWRYQPEGGRDAISIFHYA [MPZ-ecto peptide-eGFP, expressed construct: MPZ ectodomain replaced by the MPZ-ecto peptide, GFP-tagged]
[1]; Rep 1, HCT116, ecto 400 ng, YYEE and Arom-to-E 200 ng
  Caspase 8 activity, fold change relative to GFP: 2.6
[1]; Rep 2, HCT116, ecto 400 ng, YYEE and Arom-to-E 200 ng
  Caspase 8 activity, fold change relative to GFP: 2.183
[1]; Rep 2, HCT116
  AVG fold change relative to GFP: 2.183 fold
[1]; Rep 3, HCT116, ecto 400 ng, YYEE and Arom-to-E 200 ng
  Caspase 8 activity, fold change relative to GFP: 2.309
[1]; Rep 3, HCT116
  AVG fold change relative to GFP: 2.309 fold
[1]; avg of n = 3 biol rep, HCT116, ecto 400 ng, YYEE and Arom-to-E 200 ng, SEM of n = 3 in own column
  Caspase 8 activity, fold change relative to GFP, avg of biological replicates: 2.364
[2]; [5]
  % IP'ed, average: 7.7348%
  fraction IP'ed, average: 0.07735
[2]; GFP IP, HCT116, band intensity, background subtracted, divided by dilution factor 0.1, Rep 2
  input (*dilution factor): 64608140
[2]; GFP IP, HCT116, band intensity, background subtracted, divided by dilution factor 0.25, Rep 2
  beads (*dilution factor): 5226200
[2]; [6]
  beads (*diluton factor): 10106176
  input (*dilution factor): 136930440
[2]; GFP IP, HCT116, Rep 1
  fraction IP'ed: 0.07381
[2]; GFP IP, HCT116, Rep 2
  fraction IP'ed: 0.08089
[2]; GFP IP, HCT116, n=2, from unpaired t test sheet
  Mean ± SEM of fraction IP'ed: 0.07735 ± 0.003543, n=2
[2]; HCT116, 24 hr post-transfection
  DR5 complex proteins in GFP immunoprecipitates: enriched for DR5 relative to the Glu-containing mutant peptides
[2]; Rep 1, DR5 blot densitometry of beads (GFP IP), background subtracted, adjusted for dilution factor 0.25
  DR5 beads (*diluton factor): 10106176
[2]; Rep 1, DR5 blot densitometry of input, background subtracted, adjusted for dilution factor 0.1
  DR5 input (*dilution factor): 136930440
[2]; Rep 1, GFP IP, beads over input
  DR5 fraction IP'ed: 0.07381
[3]; HCT116, 24 hr, relative to empty vector or WT
  annexin V staining: increased annexin V staining relative to the empty vector
[3]; + z-VAD
  Annexin V +, Sytox Blue + cells: 8.37% of cells
[3]; + z-VAD (20 μm [sic])
  Annexin V +, Sytox Blue - cells: 3.77% of cells
  Annexin V -, Sytox Blue - cells: 86.3% of cells
[3]; no z-VAD
  Annexin V +, Sytox Blue + cells: 19.1% of cells
  Annexin V +, Sytox Blue - cells: 11.5% of cells
  Annexin V -, Sytox Blue - cells: 65.3% of cells

## C/C=C(/C)C(=O)O[C@H]1C(C)=C2[C@H]([C@@H]1OC(=O)CCCCCCC)[C@@](C)(OC(C)=O)C[C@H](OC(=O)CCC)[C@@]1(O)[C@H]2OC(=O)[C@@]1(C)O [thapsigargin, reference compound]
[1]; HCT116, rep 1, no siRNA named, average of 4 dilutions
  average fold change relative to empty: 1.771 fold change
[1]; input, dilution 0.01, rep1
  fold change relative to empty: 1.802
[1]; input, dilution 0.01, rep2
  fold change relative to empty: 2.141
[1]; input, dilution 0.01, rep3
  fold change relative to empty: 1.451
[1]; input, dilution 0.02, rep1
  fold change relative to empty: 2.44
[1]; input, dilution 0.02, rep2
  fold change relative to empty: 1.968
[1]; input, dilution 0.02, rep3
  fold change relative to empty: 1.816
[1]; input, dilution 0.02, second listing, relative to avg. empty, average of rep1-rep3
  avg fold change: 2.105
[1]; input, dilution 0.02, second listing, rep2
  fold change relative to empty: 1.992
[1]; input, dilution 0.02, second listing, rep3
  fold change relative to empty: 1.959
[3]; [7]
  AnnexinV+ (Statistic): 18.2
  AnnexinV- (Statistic): 81.8
[3]; empty w Tg vs. empty
  Difference between means: 28 ± 7.5
[3]; no siDR5, mean ± SEM, N=3, values agree with avg Annexin V+
  Mean ± SEM (Prism T-tests, Annexin V for MPZ-GFP): 35 ± 6.7 N=3
[3]; [8]
  Annexin V+: 48.1
  Annexin V-: 51.9
[3]; siRNA scrambled, 2018-01-17 MPZ, gate all cells/Single Cells/AnnexinV+, Tg sample with empty construct
  AnnexinV+ (Statistic, single cells): 48.1
[3]; siRNA scrambled, 2018-01-17 MPZ, gate all cells/Single Cells/AnnexinV-, Tg sample with empty construct
  AnnexinV- (Statistic, single cells): 51.9
[3]; siRNA scrambled, 2018-01-17 MPZ, gate all cells/Single Cells/GFP+, Tg sample with empty construct
  GFP+ (Statistic, single cells): 0.011
[3]; siRNA scrambled, 2018-01-17 MPZ, gate all cells/Single Cells/GFP-, Tg sample with empty construct
  GFP- (Statistic, single cells): 100
[3]; siRNA scrambled, 2018-01-17 MPZ, gate all cells/Single Cells/Q1, Tg sample with empty construct
  Q1: APC-A- , DAPI-A+ (Statistic, single cells): 10.8
[3]; siRNA scrambled, 2018-01-17 MPZ, gate all cells/Single Cells/Q2, Tg sample with empty construct
  Q2: APC-A+ , DAPI-A+ (Statistic, single cells): 31.2
[3]; siRNA scrambled, 2018-01-17 MPZ, gate all cells/Single Cells/Q3, Tg sample with empty construct
  Q3: APC-A+ , DAPI-A- (Statistic, single cells): 13.1
[3]; siRNA scrambled, 2018-01-17 MPZ, gate all cells/Single Cells/Q4, Tg sample with empty construct
  Q4: APC-A- , DAPI-A- (Statistic, single cells): 45
[3]; siRNA scrambled, 2018-01-17 MPZ, gate all cells/Single Cells/SytoxBlue+, Tg sample with empty construct
  SytoxBlue+ (Statistic, single cells): 40.3
[3]; siRNA scrambled, 2018-01-17 MPZ, gate all cells/Single Cells/SytoxBlue-, Tg sample with empty construct
  SytoxBlue- (Statistic, single cells): 59.7
[3]; siRNA scrambled, 2018-01-17 MPZ, gate dead cells of all events, Tg sample with empty construct
  dead cells (Statistic): 26.5
[3]; siRNA scrambled, 2018-01-17 MPZ, gate dead cells/Single Cells/FITC-A+, Tg sample with empty construct
  FITC-A+ (Statistic, dead cells): 0.016
[3]; siRNA scrambled, 2018-01-17 MPZ, gate dead cells/Single Cells/FITC-A-, Tg sample with empty construct
  FITC-A- (Statistic, dead cells): 100
[3]; [9]
  Annexin V+: 32.2
  Annexin V-: 67.8
[3]; [10]
  Annexin V+: 25.7
  Annexin V-: 74.3
[3]; [11]
  avg Annexin V+: 35.3333
  avg Annexin V-: 64.6667
[4]; relative to empty traffo, mean of 3 replicates
  avg. fold induction GFP (340+341): 0.3377
[4]; relative to empty traffo, replicate 1
  fold induction GFP (340+341): 0.335
[4]; relative to empty traffo, replicate 2
  fold induction GFP (340+341): 0.3372
[4]; relative to empty traffo, replicate 3
  fold induction GFP (340+341): 0.341
[4]; replicate 1
  2^-(deltaCq) GFP (340+341): 5.66e-5
  Cq GFP (340+341): 32.8608
  Cq(sample) - avg Cq(GAPDH), GFP (340+341): 14.1088
[4]; replicate 2
  2^-(deltaCq) GFP (340+341): 5.698e-5
  Cq GFP (340+341): 32.8514
  Cq(sample) - avg Cq(GAPDH), GFP (340+341): 14.0993
[4]; replicate 3
  2^-(deltaCq) GFP (340+341): 5.761e-5
  Cq GFP (340+341): 32.8353
  Cq(sample) - avg Cq(GAPDH), GFP (340+341): 14.0832
